Experimental data taken from US20250275951A1, “DRUGS TARGETING INFLAMMATION FOR THE TREATMENT OF OSTEOARTHRITIS AND OTHER INFLAMMATORY DISEASES” (The Board of Trustees of the Leland Stanford Junior …, priority 2020, published 2025).
One block for each molecule: values may come before it.

How the values were obtained:
DMM mouse model for OA = assay: Cartilage degeneration scoring of safranin-O stained joint sections in DMM mouse model for OA; format: in vivo
Description: Histologic outcomes: 20 wks after DMM, mice are sacrificed, and OA assessed histologically by a blinded examiner scoring cartilage degeneration through Safranin-O stained sections, and scoring synovitis and osteophytes through H&E stained sections.
Treatment with pharmacologic agents. Beginning 24 hrs after DMM, mice (n=10 per experimental arm) are treated by injection or oral gavage for 12 wks with either vehicle, or one of the agents as detailed in Table 1.
Histologic analysis. Histologic analysis of mouse stifle joints occurs 20-wks after surgery. Cartilage degeneration is assessed through scoring of Safranin-O stained sections and synovitis and osteophyte formation assessed through scoring of H&E stained sections. Significance was assessed by unpaired 2-tailed Mann-Whitney U test, with *P<0.05, **P<0.01, ***P<0.001.
After 12 weeks of treatment, mice were sacrificed, and the stifle joints harvested for histologic analysis, and safranin-O stained joint tissue sections were scored by a blinded examiner for the degree of cartilage degeneration. […] Significance was assessed by unpaired 2-tailed Mann-Whitney U test, with *P<0.05, **P<0.01, ***P<0.001, N.S. non-significant.
After 12 weeks of treatment, mice were sacrificed, and the stifle joints harvested for histologic analysis, and safranin-O stained joint tissue sections were scored by a blinded examiner for the degree of cartilage degeneration. […] Significance was assessed by unpaired 2-tailed Mann-WhitneyU test, with *P<0.05, **P<0.01, ***P<0.001.
Mice were then sacrificed, and the stifle joints harvested for histologic analysis. (A) Safranin-O stained joint tissue sections were scored by a blinded examiner for the degree of cartilage degeneration. (B) Representative safranin-O stained sections from each group are presented. […] Significance was assessed by unpaired 2-tailed Mann-Whitney U test, with *P<0.05, **P<0.01, ***P<0.001.

[1] = in vivo; cited from earlier work
[2] = system: human OA synovial tissue organoid; assay: Human OA synovial tissue organoid stimulation assay (qPCR); format: cell-based; details: rupatadine 1 μM, fenofibrate 1 μM or both; 24 hr with human OA synovial fluid; vs vehicle
Description: Human OA synovium was obtained at the time of arthroplasty and cultured overnight in tissue culture medium with human OA synovial fluid.
The arthroplasty synovium was then washed with media, cut into approximately 2 mm pieces, and individual organoid pieces further stimulated for 24 hr with human OA synovial fluid in the presence of the test small molecule compounds and combinations including: vehicle control; rupatadine 1 μM; fenofibrate 1 μM; or rupatadine 1 μM+fenofibrate 1 μM. The organoids were then harvested, total RNA extracted, reverse transcription performed, followed by qPCR to quantitate levels of RNA encoding the inflammatory lipid PAF biosynthesis enzyme (Ipcat2) gene expression as well as PAF receptor (ptafr) gene expression.

Structure (SMILES): CC(C)c1c(C(=O)Nc2ccccc2)c(-c2ccccc2)c(-c2ccc(F)cc2)n1CC[C@@H](O)C[C@@H](O)CC(=O)O [Atorvastatin]
prevention of OA (quantification of cartilage degeneration 20 wks post-DMM) (DMM mouse model for OA; C57BL/6J wild-type mice, atorvastatin 0.5 mg/kg for 12 wks following DMM vs vehicle, p=0.0513): does not prevent OA
development / severity of OA following DMM (DMM mouse model for OA; mice, dose not given at place): failure of atorvastatin to prevent OA

Structure (SMILES): CC(C)(Oc1ccc(CCNC(=O)c2ccc(Cl)cc2)cc1)C(=O)O [Bezafibrate]
Bioavailability [1]: 100%

Structure (SMILES): O=C1[C@H](CC[C@H](O)c2ccc(F)cc2)[C@@H](c2ccc(O)cc2)N1c1ccc(F)cc1 [Ezetimibe]
Bioavailability [1]: variable

Structure (SMILES): Cc1ccc(C)c(OCCCC(C)(C)C(=O)O)c1 [Gemfibrozil]
Bioavailability [1]: 100%

Structure (SMILES): CCc1ccc(CCOc2ccc(CC3SC(=O)NC3=O)cc2)nc1 (stereo not shown) [Pioglitazone]
Bioavailability [1]: 83%

PAF receptor (ptafr) gene expression [2]: decreased
inflammatory lipid PAF biosynthesis enzyme (Ipcat2) gene expression [2]: decreased
Structure (SMILES): Cc1cncc(CN2CCC(=C3c4ccc(Cl)cc4CCc4cccnc43)CC2)c1 [Rupatadine]
severity / development of OA (cartilage degeneration scores) (DMM mouse model for OA; C57Bl/6 mice, oral gavage from 1 week after DMM for 3 months, rupatadine 20 μg, fenofibrate 40 μg, or both): decreased the severity of OA
severity of OA-related cartilage degeneration following DMM (DMM mouse model for OA; WT mice, vs vehicle (combination also vs either drug alone), Example 1, dose not given at place): significantly less severe OA-related cartilage degeneration
